Earlier results on 53 molecules are cited in the CATMoS acute toxicity set (Mansouri et al. 2021).

Values joined by “and” are separate entries in the source; they are usually repeats but may differ in a detail not shown here. Equal values may be shown once.

The series in a line: rat acute oral toxicity. The note with it: in vivo. An excerpt: […]The data set underlying the modeling effort for this project was initially compiled by NICEATM and U.S. EPA’s CCTE. Briefly, LD50 data were collected from rat acute oral systemic toxicity tests, including limit tests, ranges/confidence intervals, and discrete LD50 values. The full data set included 21,200 LD50 entries for 15,688 substances. […] Data were reviewed to ensure that LD50 values with obvious errors in the extracted data such as unit conversion errors (e.g., comma and decimal separator misplacements) were either fixed or removed. After this review, 16,209 LD50 values remained. Many of the chemicals represented had multiple LD50 entries, requiring that a single representative value per Chemical Abstracts Service Registry Number (CASRN) identifier be defined to facilitate modeling efforts. Based on ATWG feedback and to define the representative LD50 as a protective value while accounting for the distribution across multiple LD50s, the median of the lowest quartile was computed using only discrete LD50 values (omitting limit test data and range and confidence interval data). A detailed summary of the data compilation is available online on the NICEATM webpage dedicated to the collaborative modeling project (NTP 2020).
[…][…] For categorical designations, limit test and range/confidence interval LD50 data were integrated wherever possible. As such, the number of chemicals with end point values/calls varies across the modeling end points (Table 3) based on whether chemicals had representative LD50 values and/or other data. If a chemical had both, the representative value was used to determine categorical calls rather than limit test data. Some data were useable only for certain end points and categories depending on the thresholds. For example, ranges that spanned multiple hazard categories were considered only for the binary (very toxic/nontoxic) end points and omitted from rendering a determination for hazard category assignment.
[…]The final data set comprising 11,992 chemicals was split into training and evaluation sets […], respectively. This process was performed semirandomly by ordering chemicals based on the five end points (categorical and continuous LD50 values) and partitioning every fourth record into the evaluation set accordingly. This approach was taken to ensure an equivalent distribution of the LD50 values and the different hazard categories between the training and the evaluation sets without supervised sampling of the chemicals based on structures (Figure 1A). The sources of the chemical structures were also kept equivalent between the two sets, with chemical structures obtained from DSSTox, being the highest quality, representing over 75% of each set (Figure 1B).
What is called LD50 is the dose expected to kill half of the subjects tested. With `CC(=O)OCOC(=O)C1=C(COC(N)=O)SC2C(C(C)O)C(=O)N12` (stereo not drawn), the LD50 was 7230 mg/kg. Take `Cc1cc(Cl)ccc1O`: the LD50 was 1190 mg/kg. For the molecule `CC[N+](C)(C)C(C)CC(c1ccccc1)c1ccccc1` (stereo not drawn), the LD50 is 1000 mg/kg. With `CCOC(=O)C(SP(=O)(OC)OC)c1ccccc1` (stereo not drawn), the LD50 is 63 mg/kg. As to `COC(F)(F)C(F)Cl` (stereo not drawn), the median lethal dose (LD50) was 5130 mg/kg. Regarding `C=CC=CC=CCCCCC`, the LD50 is 7560 mg/kg. Turning to `COC(=O)C1CCCCC1`, the median lethal dose (LD50) was 3880 mg/kg. `CC(C)CCOC(=O)c1ccccc1O`: the median lethal dose (LD50) was 3300 mg/kg. Regarding `ClCc1ccc(CCl)cc1`, the median lethal dose (LD50) is 1280 mg/kg. As to `CCCCCCCC(=O)Oc1ccc(C)cc1`, the 50% lethal dose (LD50) was 1600 mg/kg. As to `Nc1ccc(N)c2c1C(=O)c1ccccc1C2=O`, the LD50 was 5790 mg/kg. Regarding `O=C(NC(O)C(Cl)(Cl)Cl)NC(O)C(Cl)(Cl)Cl` (stereo not drawn), the LD50 was 6400 mg/kg. Take `CC(CO)CCO` (stereo not drawn): the 50% lethal dose (LD50) is 5460 mg/kg.

On to `CC1CCCCN1CCCOC(=O)c1ccc(OC2CCCCC2)cc1` (stereo not drawn), for which the 50% lethal dose (LD50) is 2340 mg/kg. Consider `CN(C)C(=S)SSC(=S)N(C)C`, for which the LD50 was 560 mg/kg. Take `CN(C)CCCCCNc1c2ccccc2nc2cccc([N+](=O)[O-])c12`: the median lethal dose (LD50) was 63.3 mg/kg. For `Cc1onc(-c2c(F)cccc2Cl)c1C(=O)N[C@@H]1C(=O)N2[C@@H]1SC(C)(C)[C@@H]2C(=O)O`, the LD50 was 11000 mg/kg. For the molecule `Cl[C@H]1[C@H](Cl)[C@@H](Cl)[C@H](Cl)[C@@H](Cl)[C@@H]1Cl` (racemic), the LD50 is 6000 mg/kg. Regarding `CCOC(=O)C1(c2ccccc2)CCCN(C)CC1` (stereo not drawn), the median lethal dose (LD50) was 580 mg/kg and 355 mg/kg.

Turning to `CCC(C)C(CN(C)C)c1ccc(Cl)cc1Cl` (stereo not drawn), the LD50 is 567 mg/kg.

As to `CC(=O)OCCC1CCCCC1`, the 50% lethal dose (LD50) is 3200 mg/kg. For `Clc1cnn(CCCCN2CCN(c3ncccn3)CC2)c1`, the 50% lethal dose (LD50) was 374 mg/kg.

Regarding `O=CC1C(=O)N(c2ccccc2)N=C1c1ccccc1` (stereo not drawn), the median lethal dose (LD50) is 789 mg/kg. In the case of `CC(=O)OC(C)CC(C)C` (stereo not drawn), the LD50 is 6160 mg/kg.

`Clc1cc(Cl)c(Cl)c(Cl)c1`: the LD50 was 1730 mg/kg. Consider `Clc1ccc(COC(Cn2ccnc2)c2ccc(Cl)cc2Cl)c(Cl)c1` (stereo not drawn), for which the LD50 is 920 mg/kg and 550 mg/kg.

Turning to `CC1C(=O)C[C@]2(C(C)C)C[C@H]12` (single isomer, unassigned; (-)), the LD50 is 192 mg/kg. Turning to `Nc1cc([N+](=O)[O-])ccc1O`, the LD50 was 2400 mg/kg. Regarding `COP(=S)(OC)Oc1ccc2c(C)cc(=O)oc2c1`, the median lethal dose (LD50) is 15.6 mg/kg. Take `Cc1ncc(CO)c(CO)c1O`: the LD50 is 4000 mg/kg. In the case of `CCOC(=O)C1=CN(C(=O)CC)C2CCCC(C)N2C1=O` (stereo not drawn), the median lethal dose (LD50) is 2970 mg/kg. Turning to `CN(C)C(CSC#N)CSC#N`, the LD50 is 125 mg/kg and 82 mg/kg. Take `CC(C)(O)CC(C)(O)c1ccc(Cl)cc1` (stereo not drawn): the LD50 is 1140 mg/kg.

As for `O=C1Nc2ccc(Cl)cc2C(c2ccccc2Cl)=NC1O` (stereo not drawn), the LD50 is 4500 mg/kg.

In the case of `Nc1nnc(C=Cc2ccc([N+](=O)[O-])o2)s1`, the LD50 was 1880 mg/kg. Take `CN(CCCn1cnc2c1c(=O)n(C)c(=O)n2C)c1ccccc1`: the 50% lethal dose (LD50) is 1640 mg/kg. As for `COCC(=O)NP(=O)(OC)SC` (stereo not drawn), the LD50 was 200 mg/kg. As to `O=S(=O)(O)c1cc(O)ccc1O`, the LD50 is 7500 mg/kg.

As to `CCCC(=O)C(CC)Cc1ccccc1` (stereo not drawn), the 50% lethal dose (LD50) is 4400 mg/kg.

In the case of `CCOP(=O)(O)C(N)=O`, the LD50 is 10100 mg/kg. Regarding `COc1ccc2c(c1)[C@@]13CCCC[C@H]1[C@@H](C2)N(C)CC3`, the LD50 is 242 mg/kg. For `Clc1cc(Cl)c(Cl)c(-c2cc(Cl)c(-c3cc(Cl)c(Cl)c(Cl)c3)c(Cl)c2Cl)c1`, the 50% lethal dose (LD50) was 19200 mg/kg.

For the molecule `C=CC(=O)OCC(C)OCC(C)OCC(C)OC(=O)C=C` (stereo not drawn), the LD50 was 6200 mg/kg. For `CNC(=S)S`, the median lethal dose (LD50) was 108 mg/kg.

For the molecule `CO[Si](CCCCCCCCCC[Si](OC)(OC)OC)(OC)OC`, the LD50 was 2200 mg/kg. Turning to `CNC(=O)Oc1cccc2sccc12`, the LD50 is 70 mg/kg.

For `CN1C(=O)CC(=O)N(c2ccccc2)c2cc(Cl)ccc21`, the median lethal dose (LD50) is 6000 mg/kg. Consider `CN(N=Nc1ccccc1)N=Nc1ccccc1`, for which the LD50 was 212 mg/kg. On to `Nc1nc(N)nc(NC2CC2)n1`, for which the 50% lethal dose (LD50) was 3390 mg/kg.

On to `COP(=O)(OC1CCCCC1)Sc1ccc(Cl)cc1` (stereo not drawn), for which the median lethal dose (LD50) is 160 mg/kg. `CCNc1nc(Cl)nc(N(CC)CC)n1`: the 50% lethal dose (LD50) is 594 mg/kg. As for `c1ccc(N=Nc2ccccc2)cc1`, the median lethal dose (LD50) is 1000 mg/kg. As to `CCNc1nc(Cl)nc(NCC)n1`, the LD50 is 971 mg/kg.
